According to PubChem BioAssay (NCI):
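Five concentrations, 48 hours, 96-well plates. TGI is the concentration that stops growth completely.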

Assays:
Assay in all cases: NCI-60 cell line screen, 48 h
SK-MEL-2 melanoma = test system: SK-MEL-2 melanoma
NCI-H460 lung = test system: NCI-H460 lung
MCF7 breast = test system: MCF7 breast
SR leukemia = test system: SR leukemia
786-0 renal = test system: 786-0 renal
EKVX NSCLC = test system: EKVX NSCLC
OVCAR-4 ovarian = test system: OVCAR-4 ovarian
PC-3 prostate = test system: PC-3 prostate
HT29 colon = test system: HT29 colon
K-562 leukemia = test system: K-562 leukemia
SW-620 colon = test system: SW-620 colon
MDA-N = test system: MDA-N
LOX IMVI melanoma = test system: LOX IMVI melanoma
SF-268 CNS = test system: SF-268 CNS
NCI-H522 lung = test system: NCI-H522 lung
OVCAR-8 ovarian = test system: OVCAR-8 ovarian
M14 melanoma = test system: M14 melanoma
MDA-MB-231 breast = test system: MDA-MB-231 breast
OVCAR-5 ovarian = test system: OVCAR-5 ovarian
RPMI-8226 leukemia = test system: RPMI-8226 leukemia
SF-539 CNS = test system: SF-539 CNS
HS 578T breast = test system: HS 578T breast
HL-60(TB) leukemia = test system: HL-60(TB) leukemia
UACC-257 melanoma = test system: UACC-257 melanoma
HOP-62 NSCLC = test system: HOP-62 NSCLC
SNB-19 CNS = test system: SNB-19 CNS
CAKI-1 renal = test system: CAKI-1 renal
TK-10 renal = test system: TK-10 renal
A498 renal = test system: A498 renal
HCC-2998 colon = test system: HCC-2998 colon
BT-549 breast = test system: BT-549 breast
SK-MEL-5 melanoma = test system: SK-MEL-5 melanoma
NCI-H226 lung = test system: NCI-H226 lung
U251 CNS = test system: U251 CNS
SK-MEL-28 melanoma = test system: SK-MEL-28 melanoma
DU-145 prostate = test system: DU-145 prostate
SK-OV-3 ovarian = test system: SK-OV-3 ovarian
ACHN renal = test system: ACHN renal
HCT-15 colon = test system: HCT-15 colon
UO-31 renal = test system: UO-31 renal
OVCAR-3 ovarian = test system: OVCAR-3 ovarian
CCRF-CEM leukemia = test system: CCRF-CEM leukemia
SF-295 CNS = test system: SF-295 CNS
NCI/ADR-RES ovarian = test system: NCI/ADR-RES ovarian
NCI-H23 lung = test system: NCI-H23 lung
MDA-MB-435 = test system: MDA-MB-435
HOP-92 NSCLC = test system: HOP-92 NSCLC
COLO 205 colon = test system: COLO 205 colon
T-47D breast = test system: T-47D breast
A549 NSCLC = test system: A549 NSCLC
HCT-116 colon = test system: HCT-116 colon
UACC-62 melanoma = test system: UACC-62 melanoma
IGROV1 ovarian = test system: IGROV1 ovarian
SNB-75 CNS = test system: SNB-75 CNS
KM12 colon = test system: KM12 colon
MOLT-4 leukemia = test system: MOLT-4 leukemia
SN12C renal = test system: SN12C renal

Measured: TGI

C=C1C/C(=C/C)C(=O)O[C@@H]2CCN3CC=C(COC(=O)[C@]1(C)O)[C@H]23
> 100 µM: SK-MEL-2 melanoma | NCI-H460 lung | MCF7 breast | SR leukemia | 786-0 renal | EKVX NSCLC | OVCAR-4 ovarian | PC-3 prostate | HT29 colon | K-562 leukemia | SW-620 colon | MDA-N | LOX IMVI melanoma | SF-268 CNS | NCI-H522 lung | OVCAR-8 ovarian | M14 melanoma | MDA-MB-231 breast | OVCAR-5 ovarian | RPMI-8226 leukemia | SF-539 CNS | HS 578T breast | HL-60(TB) leukemia | UACC-257 melanoma | HOP-62 NSCLC | SNB-19 CNS | CAKI-1 renal | TK-10 renal | A498 renal | HCC-2998 colon | BT-549 breast | SK-MEL-5 melanoma | NCI-H226 lung | U251 CNS | SK-MEL-28 melanoma | DU-145 prostate | SK-OV-3 ovarian | ACHN renal | HCT-15 colon | UO-31 renal | OVCAR-3 ovarian | CCRF-CEM leukemia | SF-295 CNS | NCI/ADR-RES ovarian | NCI-H23 lung | MDA-MB-435 | HOP-92 NSCLC | COLO 205 colon | T-47D breast | A549 NSCLC | HCT-116 colon | UACC-62 melanoma | IGROV1 ovarian | SNB-75 CNS | KM12 colon

CC(O)(CCCCCl)c1nc2ccccc2s1 (centres undefined)
> 100 µM: MOLT-4 leukemia | SN12C renal | SK-MEL-2 melanoma | MCF7 breast | SR leukemia | 786-0 renal | EKVX NSCLC | OVCAR-4 ovarian | PC-3 prostate | HT29 colon | K-562 leukemia | SW-620 colon | MDA-N | LOX IMVI melanoma | SF-268 CNS | NCI-H522 lung | OVCAR-8 ovarian | M14 melanoma | MDA-MB-231 breast | OVCAR-5 ovarian | RPMI-8226 leukemia | SF-539 CNS | HS 578T breast | HL-60(TB) leukemia | UACC-257 melanoma | HOP-62 NSCLC | SNB-19 CNS | CAKI-1 renal | TK-10 renal | A498 renal | BT-549 breast | SK-MEL-5 melanoma | NCI-H226 lung | U251 CNS | SK-MEL-28 melanoma | DU-145 prostate | SK-OV-3 ovarian | ACHN renal | HCT-15 colon | UO-31 renal | OVCAR-3 ovarian | CCRF-CEM leukemia | SF-295 CNS | NCI/ADR-RES ovarian | NCI-H23 lung | MDA-MB-435 | COLO 205 colon | T-47D breast | A549 NSCLC | HCT-116 colon | UACC-62 melanoma | IGROV1 ovarian | SNB-75 CNS | KM12 colon

Cn1c(=O)c2c(ncn2Cc2ccc(O)c([N+](=O)[O-])c2)n(C)c1=O
> 100 µM: MOLT-4 leukemia | SN12C renal | SK-MEL-2 melanoma | NCI-H460 lung | MCF7 breast | SR leukemia | 786-0 renal | EKVX NSCLC | OVCAR-4 ovarian | PC-3 prostate | HT29 colon | K-562 leukemia | SW-620 colon | MDA-N | LOX IMVI melanoma | SF-268 CNS | NCI-H522 lung | OVCAR-8 ovarian | M14 melanoma | MDA-MB-231 breast | OVCAR-5 ovarian | RPMI-8226 leukemia | SF-539 CNS | HS 578T breast | HL-60(TB) leukemia | UACC-257 melanoma | HOP-62 NSCLC | SNB-19 CNS | CAKI-1 renal | TK-10 renal | A498 renal | BT-549 breast | SK-MEL-5 melanoma | NCI-H226 lung | U251 CNS | SK-MEL-28 melanoma | DU-145 prostate | SK-OV-3 ovarian | ACHN renal | HCT-15 colon | UO-31 renal | OVCAR-3 ovarian | CCRF-CEM leukemia | SF-295 CNS | NCI/ADR-RES ovarian | NCI-H23 lung | MDA-MB-435 | COLO 205 colon | T-47D breast | A549 NSCLC | HCT-116 colon | UACC-62 melanoma | IGROV1 ovarian | SNB-75 CNS | KM12 colon
